In test [1] the test system is Aspergillus fumigatus. In words: Antifungal activity against Aspergillus fumigatus MTCC 343 assessed as zone of inhibition at 100 ug/well measured after 48 hrs by agar well diffusion method. It is filed as functional. Particulars: MTCC 343, 48 h, read-out: DIZ.
For test [2], the system named is Aspergillus fumigatus. In words: Antifungal activity against Aspergillus fumigatus MTCC 343 measured after 48 hrs by NCCL protocol based broth dilution method. Conditions: MTCC 343, 48 h. Format: functional.
Test [3] deals with Streptococcus mutans. In words: Antibacterial activity against Streptococcus mutans MTCC 497 assessed as zone of inhibition at 100 ug/well measured after 24 hrs by agar well diffusion method. Format: functional. Conditions: MTCC 497, 24 h, read-out: DIZ.
The subject of test [4] is Micrococcus luteus. The test can be described thus: Antibacterial activity against Micrococcus luteus MTCC 106 assessed as zone of inhibition at 100 ug/well measured after 24 hrs by agar well diffusion method. It is filed as functional. Particulars: MTCC 106, 24 h, read-out: DIZ. For orientation: A growth-free zone around the sample is the usual read-out of agar diffusion tests.

The test system of test [5] is Staphylococcus aureus. The test can be described thus: Antibacterial activity against Staphylococcus aureus MTCC 3160 assessed as zone of inhibition at 100 ug/well measured after 24 hrs by agar well diffusion method. Format: functional. Conditions: MTCC 3160, 24 h, read-out: DIZ.
For test [6], the system named is Salmonella paratyphi. In words: Antibacterial activity against Salmonella paratyphi assessed as zone of inhibition at 100 ug/well measured after 24 hrs by agar well diffusion method. It is filed as functional, Salmonella enterica subsp. enterica serovar Paratyphi A. Conditions: Salmonella enterica, read-out: DIZ.
Test [7] relates to Salmonella typhi. In words: Antibacterial activity against Salmonella typhi assessed as zone of inhibition at 100 ug/well measured after 24 hrs by agar well diffusion method. Format: functional, Salmonella enterica subsp. enterica serovar Typhi. Particulars: Salmonella enterica, read-out: DIZ.
In test [8] the test system is Klebsiella pneumoniae. In words: Antibacterial activity against Klebsiella pneumoniae MTCC 3384 assessed as zone of inhibition at 100 ug/well measured after 24 hrs by agar well diffusion method. It is filed as functional. Conditions: MTCC 3384, 24 h, read-out: DIZ.
Test [9] has as its system Candida albicans. In words: Antifungal activity against Candida albicans MTCC 3017 assessed as zone of inhibition at 100 ug/well measured after 48 hrs by agar well diffusion method. Conditions: MTCC 3017, 48 h, read-out: DIZ. It is filed as functional.
Test [10] relates to Streptococcus mutans. The test can be described thus: Antibacterial activity against Streptococcus mutans MTCC 497 measured after 24 hrs by NCCL protocol based broth dilution method. Conditions: MTCC 497, 24 h. Format: functional. (Dilution methods test growth across graded concentrations, often in twofold steps.)
Test [11] concerns Micrococcus luteus. The test can be described thus: Antibacterial activity against Micrococcus luteus MTCC 106 measured after 24 hrs by NCCL protocol based broth dilution method. Format: functional. Particulars: MTCC 106, 24 h.
For test [12], the system named is Staphylococcus aureus. In words: Antibacterial activity against Staphylococcus aureus MTCC 3160 measured after 24 hrs by NCCL protocol based broth dilution method. Format: functional. Conditions: MTCC 3160, 24 h.
Test [13] concerns Salmonella paratyphi. In words: Antibacterial activity against Salmonella paratyphi measured after 24 hrs by NCCL protocol based broth dilution method. Format: functional, Salmonella enterica subsp. enterica serovar Paratyphi A. Particulars: Salmonella enterica.
Test [14] concerns Salmonella typhi. In words: Antibacterial activity against Salmonella typhi measured after 24 hrs by NCCL protocol based broth dilution method. Format: functional, Salmonella enterica subsp. enterica serovar Typhi. Conditions: Salmonella enterica.
Test [15] relates to Klebsiella pneumoniae. In words: Antibacterial activity against Klebsiella pneumoniae MTCC 3384 measured after 24 hrs by NCCL protocol based broth dilution method. Format: functional. Particulars: MTCC 3384, 24 h.
Test [16] deals with Candida albicans. In words: Antifungal activity against Candida albicans MTCC 3017 measured after 48 hrs by NCCL protocol based broth dilution method. Format: functional. Conditions: MTCC 3017, 48 h.

Converted amounts (≈) assume the structure as drawn.

`C[C@@H]1C[C@@H]([C@H](O)CC2CC(=O)NC(=O)C2)C(=O)[C@@H](C)C1` [CYCLOHEXIMIDE]: the zone of inhibition at 100 µg/disc in the test with Aspergillus fumigatus [1] came to 25 mm. In the test with Aspergillus fumigatus [2], this compound had an MIC of 125 µg/mL (≈ 444 µM).
With `Cc1ccc(/N=C/c2ccc(B3OC[C@H]4O[C@@H]5OC(C)(C)O[C@@H]5[C@H]4O3)cc2)cc1`, the zone of inhibition at 100 µg/disc with Streptococcus mutans [3] was found to be 17 mm; with Micrococcus luteus [4], 12 mm; in the test on Staphylococcus aureus [5], 17 mm; in the test on Salmonella paratyphi [6], 0 mm; in the test on Salmonella typhi [7], 18 mm; with Klebsiella pneumoniae [8], 24 mm. In addition, the zone of inhibition at 100 µg/disc is 12 mm in the test with Candida albicans [9] and 0 mm in the test with Aspergillus fumigatus [1]. The minimum inhibitory concentration (MIC) in the test on Streptococcus mutans [10] is 125 µg/mL (≈ 318 µM); against Micrococcus luteus [11] it was 125 µg/mL (≈ 318 µM); in the test with Staphylococcus aureus [12], 125 µg/mL (≈ 318 µM); in the test on Salmonella paratyphi [13], 500 µg/mL (≈ 1270 µM); against Salmonella typhi [14] it was 125 µg/mL (≈ 318 µM); against Klebsiella pneumoniae [15], 62.5 µg/mL (≈ 159 µM). The minimum inhibitory concentration (MIC) in the test on Candida albicans [16] stood at 250 µg/mL (≈ 636 µM); in the test with Aspergillus fumigatus [2], 500 µg/mL (≈ 1270 µM).
Turning to `COc1ccc(/N=C/c2cccc(B3OC[C@H]4O[C@@H]5OC(C)(C)O[C@@H]5[C@H]4O3)c2)cc1`, the zone of inhibition at 100 µg/disc in the test on Streptococcus mutans [3] was determined as 17 mm; in the test with Micrococcus luteus [4] it was 12 mm; in the test with Staphylococcus aureus [5], 0 mm; in the test on Salmonella paratyphi [6] it was 21 mm; with Salmonella typhi [7], 25 mm; in the test with Klebsiella pneumoniae [8], 18 mm. The zone of inhibition at 100 µg/disc was 16 mm in the test on Candida albicans [9] and 0 mm in the test with Aspergillus fumigatus [1]. In addition, the MIC worked out at 125 µg/mL (≈ 305 µM) with Streptococcus mutans [10]; 250 µg/mL (≈ 611 µM) in the test on Micrococcus luteus [11]; 500 µg/mL (≈ 1220 µM) in the test on Staphylococcus aureus [12]; 62.5 µg/mL (≈ 153 µM) in the test with Salmonella paratyphi [13]; 31.2 µg/mL (≈ 76.4 µM) in the test on Salmonella typhi [14]; 62.5 µg/mL (≈ 153 µM) against Klebsiella pneumoniae [15]. The minimum inhibitory concentration (MIC) in the test on Candida albicans [16] amounted to 125 µg/mL (≈ 305 µM); with Aspergillus fumigatus [2], 500 µg/mL (≈ 1220 µM).
As for `COc1ccc(/C=N/c2cccc(B3OC[C@H]4O[C@@H]5OC(C)(C)O[C@@H]5[C@H]4O3)c2)c(O)c1`, the zone of inhibition at 100 µg/disc with Streptococcus mutans [3] was 22 mm; with Micrococcus luteus [4], 21 mm; in the test with Staphylococcus aureus [5] it was 15 mm; in the test on Salmonella paratyphi [6], 0 mm; in the test on Salmonella typhi [7] it was 21 mm; with Klebsiella pneumoniae [8] it was 19 mm. For the same compound, the results for the zone of inhibition at 100 µg/disc in the test on Candida albicans [9] and in the test on Aspergillus fumigatus [1] were 13 mm and 0 mm, respectively. In addition, the MIC in the test on Streptococcus mutans [10] turned out to be 62.5 µg/mL (≈ 147 µM); against Micrococcus luteus [11], 62.5 µg/mL (≈ 147 µM); against Staphylococcus aureus [12] it was 125 µg/mL (≈ 294 µM); in the test with Salmonella paratyphi [13], 250 µg/mL (≈ 588 µM); against Salmonella typhi [14], 62.5 µg/mL (≈ 147 µM); in the test with Klebsiella pneumoniae [15] it was 62.5 µg/mL (≈ 147 µM). Further, the minimal inhibitory concentration (MIC) in the test with Candida albicans [16] and in the test on Aspergillus fumigatus [2] was 250 µg/mL (≈ 588 µM) in each case.
Consider `OC(Cn1cncn1)(Cn1cncn1)c1ccc(F)cc1F` [FLUCONAZOLE], for which the zone of inhibition at 100 µg/disc in the test with Candida albicans [9] was 18 mm. Besides, in the test on Candida albicans [16], the MIC came out at 62.5 µg/mL (≈ 204 µM).
For `CN[C@@H]1[C@H](O[C@H]2[C@H](O[C@H]3[C@H](O)[C@@H](O)[C@H](N=C(N)N)[C@@H](O)[C@@H]3N=C(N)N)O[C@@H](C)[C@]2(O)C=O)O[C@@H](CO)[C@H](O)[C@H]1O.CN[C@@H]1[C@H](O[C@H]2[C@H](O[C@H]3[C@H](O)[C@@H](O)[C@H](N=C(N)N)[C@@H](O)[C@@H]3N=C(N)N)O[C@@H](C)[C@]2(O)C=O)O[C@@H](CO)[C@H](O)[C@H]1O.O=S(=O)(O)O.O=S(=O)(O)O.O=S(=O)(O)O` [STREPTOMYCIN SULFATE], the zone of inhibition at 100 µg/disc with Streptococcus mutans [3] came to 26 mm; in the test with Micrococcus luteus [4], 20 mm; in the test with Staphylococcus aureus [5], 26 mm; with Salmonella paratyphi [6], 23 mm; in the test on Salmonella typhi [7] it was 25 mm; with Klebsiella pneumoniae [8], 25 mm. Moreover, the minimal inhibitory concentration (MIC) in the test with Streptococcus mutans [10] was found to be 31.2 µg/mL; with Micrococcus luteus [11] it was 31.2 µg/mL; with Staphylococcus aureus [12], 15.6 µg/mL; in the test on Salmonella paratyphi [13], 15.6 µg/mL; with Salmonella typhi [14], 31.2 µg/mL; in the test with Klebsiella pneumoniae [15] it was 31.2 µg/mL.

By MIC is commonly meant the smallest concentration in the dilution series that meets the test's criterion for growth inhibition.

Source of the values: ChEMBL document CHEMBL3822364, “Synthesis, characterization and antimicrobial activity of novel Schiff base tethered boronate esters of 1,2-O-isopropylidene-α-d-xylofuranose” (2016).
